In patent publication US11642348B2, “Substituted benzene compounds” (Epizyme, Inc., priority 2012, dated 2023):
Where two headings read alike, the source gives them in different places.

Tests used:
WSU-DLCL2 cells = experiment: Cell proliferation analysis (WSU-DLCL2, Cell Titer Glo); assay type: cell-based; conditions: Homo sapiens, 6 days
[1] = target: wild-type EZH2 (PRC2 complex) (Homo sapiens (Human), UniProt Q15910); experiment: PRC2 enzyme assay on peptide substrates (wild-type EZH2)
[2] = test system: H3K27me3 in WSU-DLCL2 cells; experiment: WSU-DLCL2 methylation assay (H3K27me3 ELISA); assay type: cell-based; conditions: Homo sapiens, 96 hours
[3] = WSUDLCL2, Table 3A, read-out: WSU Prolif. IC50
[4] = WSUDLCL2, Table 3A, read-out: H3K27Me3 ELISA IC50
[5] = WSUDLCL2, Table 3B, read-out: ELISA H3K27me3 IC50
[6] = WSUDLCL2, Table 3B, read-out: WSU proliferation IC50
[7] = read-out: WT EZH2 IC50, Table 3B, wild-type PRC2 enzyme, peptide substrate

Chain of wild-type EZH2 (PRC2 complex) (Q15910 other isoform, or with tags, fused parts or gaps): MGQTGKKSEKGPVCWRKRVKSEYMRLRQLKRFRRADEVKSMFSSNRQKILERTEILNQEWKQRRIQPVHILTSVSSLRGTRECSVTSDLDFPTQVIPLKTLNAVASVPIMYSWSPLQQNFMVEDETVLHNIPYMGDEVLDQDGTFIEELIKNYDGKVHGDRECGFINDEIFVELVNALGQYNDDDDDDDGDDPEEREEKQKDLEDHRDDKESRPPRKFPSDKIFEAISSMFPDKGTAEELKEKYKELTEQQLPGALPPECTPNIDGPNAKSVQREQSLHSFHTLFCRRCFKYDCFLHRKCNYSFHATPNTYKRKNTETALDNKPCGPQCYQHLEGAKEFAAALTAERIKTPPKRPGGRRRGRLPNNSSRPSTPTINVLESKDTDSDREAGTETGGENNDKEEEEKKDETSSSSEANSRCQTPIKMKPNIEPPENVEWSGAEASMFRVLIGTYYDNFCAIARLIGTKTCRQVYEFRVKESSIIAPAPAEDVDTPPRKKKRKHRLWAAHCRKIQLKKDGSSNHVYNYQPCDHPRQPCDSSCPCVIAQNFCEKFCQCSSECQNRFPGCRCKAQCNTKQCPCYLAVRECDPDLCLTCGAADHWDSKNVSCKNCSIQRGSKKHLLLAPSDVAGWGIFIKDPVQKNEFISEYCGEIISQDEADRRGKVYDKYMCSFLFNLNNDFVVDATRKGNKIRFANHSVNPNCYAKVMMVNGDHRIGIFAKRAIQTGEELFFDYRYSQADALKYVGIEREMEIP
Chain of wild-type EZH2 (PRC2 complex) (O75530 whole entry partner): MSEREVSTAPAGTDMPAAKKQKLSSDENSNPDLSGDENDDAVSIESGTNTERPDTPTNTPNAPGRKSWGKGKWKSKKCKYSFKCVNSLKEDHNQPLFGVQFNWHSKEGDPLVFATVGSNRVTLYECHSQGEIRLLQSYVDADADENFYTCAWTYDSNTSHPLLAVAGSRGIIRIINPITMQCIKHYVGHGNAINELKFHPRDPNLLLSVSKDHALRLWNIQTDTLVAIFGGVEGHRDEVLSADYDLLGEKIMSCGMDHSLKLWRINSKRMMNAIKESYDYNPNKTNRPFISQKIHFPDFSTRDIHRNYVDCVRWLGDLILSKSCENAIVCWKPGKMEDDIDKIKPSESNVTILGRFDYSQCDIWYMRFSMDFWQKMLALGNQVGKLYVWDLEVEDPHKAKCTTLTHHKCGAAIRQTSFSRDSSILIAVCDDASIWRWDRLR
Chain of wild-type EZH2 (PRC2 complex) (Q15022 whole entry partner): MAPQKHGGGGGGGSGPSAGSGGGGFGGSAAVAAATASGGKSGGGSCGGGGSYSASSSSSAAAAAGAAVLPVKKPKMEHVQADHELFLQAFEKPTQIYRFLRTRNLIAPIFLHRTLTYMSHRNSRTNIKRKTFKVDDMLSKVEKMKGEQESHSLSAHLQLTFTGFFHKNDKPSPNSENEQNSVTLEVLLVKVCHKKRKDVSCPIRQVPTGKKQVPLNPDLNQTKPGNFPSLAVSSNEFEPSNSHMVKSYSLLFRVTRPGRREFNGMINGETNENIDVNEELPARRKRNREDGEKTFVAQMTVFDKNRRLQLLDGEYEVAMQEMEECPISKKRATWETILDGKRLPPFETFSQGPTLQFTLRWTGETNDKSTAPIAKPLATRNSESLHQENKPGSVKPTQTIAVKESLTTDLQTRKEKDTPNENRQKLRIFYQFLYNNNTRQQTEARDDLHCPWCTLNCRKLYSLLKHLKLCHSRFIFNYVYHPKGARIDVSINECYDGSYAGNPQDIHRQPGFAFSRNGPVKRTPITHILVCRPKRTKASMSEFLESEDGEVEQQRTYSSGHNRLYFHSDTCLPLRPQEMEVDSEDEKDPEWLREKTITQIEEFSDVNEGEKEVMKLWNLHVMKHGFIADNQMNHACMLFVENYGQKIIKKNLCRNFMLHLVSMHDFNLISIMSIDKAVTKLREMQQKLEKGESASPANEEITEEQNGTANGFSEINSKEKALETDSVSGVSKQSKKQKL
Chain of wild-type EZH2 (PRC2 complex) (Q09028 whole entry partner): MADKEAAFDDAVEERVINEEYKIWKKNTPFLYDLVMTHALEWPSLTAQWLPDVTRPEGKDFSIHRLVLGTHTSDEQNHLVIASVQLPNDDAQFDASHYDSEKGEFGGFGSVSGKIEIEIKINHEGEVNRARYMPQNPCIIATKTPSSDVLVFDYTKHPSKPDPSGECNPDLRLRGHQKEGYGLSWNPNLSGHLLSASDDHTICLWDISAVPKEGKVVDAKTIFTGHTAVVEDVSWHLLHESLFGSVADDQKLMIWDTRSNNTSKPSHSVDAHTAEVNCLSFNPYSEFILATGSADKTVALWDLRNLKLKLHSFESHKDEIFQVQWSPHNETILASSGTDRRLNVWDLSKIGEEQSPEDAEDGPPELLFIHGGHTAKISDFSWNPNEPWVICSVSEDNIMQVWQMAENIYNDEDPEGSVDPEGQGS

| IC50 [1] [µM] | IC50 [2, 4] [µM] | IC50 [2, 5] [µM] | IC50 [1, 7] [µM] | Structure (SMILES) | IC50 (WSU-DLCL2 cells; [3]) [µM] | IC50 (WSU-DLCL2 cells; [6]) [µM] |
| --- | --- | --- | --- | --- | --- | --- |
| 0.0113 |  |  |  | CCN(c1cc(-c2ccc(OCCO)cc2)cc(C(=O)NCc2c(C)cc(C)[nH]c2=O)c1C)[C@H]1CC[C@H](N(C)C)CC1 [Compound 3, N-((4,6-dimethyl-2-oxo-1,2-dihydropyridin-3-yl)methyl)-5-(((trans)-4-(dimethylamino)cyclohexyl)(ethyl)amino)-4′-(2-hydroxyethoxy)-4-methyl-[1,1′-biphenyl]-3-carboxamide] | 0.186 |  |
| 0.0089 | 21.8 |  |  | CCN(c1cc(-c2ccc(OCCO)nc2)cc(C(=O)NCc2c(C)cc(C)[nH]c2=O)c1C)[C@H]1CC[C@H](N(C)C)CC1 [Compound 4, N-((4,6-dimethyl-2-oxo-1,2-dihydropyridin-3-yl)methyl)-3-(((trans)-4-(dimethylamino)cyclohexyl)(ethyl)amino)-5-(6-(2-hydroxyethoxy)pyridin-3-yl)-2-methylbenzamide] | 23.6 |  |
| 0.021 | 0.458 |  |  | CCN(c1cc(C#CCN2CCN(C)CC2)cc(C(=O)NCc2c(C)cc(C)[nH]c2=O)c1C)[C@H]1CC[C@H](N(C)CCOC)CC1 [Compound 7, N-((4,6-dimethyl-2-oxo-1,2-dihydropyridin-3-yl)methyl)-3-(ethyl((trans)-4-((2-methoxyethyl)(methyl)amino)cyclohexyl)amino)-2-methyl-5-(3-(4-methylpiperazin-1-yl)prop-1-yn-1-yl)benzamide] | 0.651 |  |
| 0.0053 | 0.515 |  |  | CCN(c1cc(F)cc(C(=O)NCc2c(C)cc(C)[nH]c2=O)c1C)[C@H]1CC[C@H](N(C)CCOC)CC1 [Compound 9, N-((4,6-dimethyl-2-oxo-1,2-dihydropyridin-3-yl)methyl)-3-(ethyl((trans)-4-((2-methoxyethyl)(methyl)amino)cyclohexyl)amino)-5-fluoro-2-methylbenzamide] | 1.31 |  |
| 0.00736 | 0.469 |  |  | CCN(c1cccc(C(=O)NCc2c(C)cc(C)[nH]c2=O)c1C)[C@H]1CC[C@H](N(C)CCOC)CC1 [Compound 10, N-((4,6-dimethyl-2-oxo-1,2-dihydropyridin-3-yl)methyl)-3-(ethyl((trans)-4-((2-methoxyethyl)(methyl)amino)cyclohexyl)amino)-2-methylbenzamide] | 0.307 |  |
| 0.00627 | 0.673 |  |  | CCN(c1cc(OC)cc(C(=O)NCc2c(C)cc(C)[nH]c2=O)c1C)[C@H]1CC[C@H](N(C)CCOC)CC1 [Compound 11, N-((4,6-dimethyl-2-oxo-1,2-dihydropyridin-3-yl)methyl)-3-(ethyl((trans)-4-((2-methoxyethyl)(methyl)amino)cyclohexyl)amino)-5-methoxy-2-methylbenzamide] |  |  |
| 0.029 | 0.308 |  |  | CCN(c1cc(OCCOC)cc(C(=O)NCc2c(C)cc(C)[nH]c2=O)c1C)[C@H]1CC[C@H](N(C)CCOC)CC1 [Compound 12, N-((4,6-dimethyl-2-oxo-1,2-dihydropyridin-3-yl)methyl)-3-(ethyl((trans)-4-((2-methoxyethyl)(methyl)amino)cyclohexyl)amino)-5-(2-methoxyethoxy)-2-methylbenzamide] |  |  |
| 0.00486 | 0.34 |  |  | CCN(c1cc(-c2ccc(C)nc2)cc(C(=O)NCc2c(C)cc(C)[nH]c2=O)c1C)[C@H]1CC[C@H](N(C)CCOC)CC1 [Compound 15] | 0.346 |  |
| 0.00596 | 0.287 |  |  | CCN(c1cc(-c2ccc(OC)nc2)cc(C(=O)NCc2c(C)cc(C)[nH]c2=O)c1C)[C@H]1CC[C@H](N(C)CCOC)CC1 [Compound 16] | 0.675 |  |
| 0.0129 | 0.402 |  |  | CCN(c1cc(-c2cnc(OC)cn2)cc(C(=O)NCc2c(C)cc(C)[nH]c2=O)c1C)[C@H]1CC[C@H](N(C)CCOC)CC1 [Compound 17] | 0.507 |  |
| 0.00859 | 0.553 |  |  | CCN(c1cc(-c2cnc(C)cn2)cc(C(=O)NCc2c(C)cc(C)[nH]c2=O)c1C)[C@H]1CC[C@H](N(C)CCOC)CC1 [Compound 18] |  |  |
| 0.0101 | 0.84 |  |  | CCN(c1cc(-c2cncnc2)cc(C(=O)NCc2c(C)cc(C)[nH]c2=O)c1C)[C@H]1CC[C@H](N(C)CCOC)CC1 [Compound 21] | 1.39 |  |
| 0.0283 | 1.04 |  |  | CCN(c1cc(-c2cnccn2)cc(C(=O)NCc2c(C)cc(C)[nH]c2=O)c1C)[C@H]1CC[C@H](N(C)CCOC)CC1 [Compound 22] |  |  |
| < 0.005 | 0.401 |  |  | CCN(c1cc(-c2cnn(C)c2)cc(C(=O)NCc2c(C)cc(C)[nH]c2=O)c1C)[C@H]1CC[C@H](N(C)CCOC)CC1 [Compound 23] |  |  |
| 0.0089 | 0.65 |  |  | CCN(c1cc(C2CCOCC2)cc(C(=O)NCc2c(C)cc(C)[nH]c2=O)c1C)[C@H]1CC[C@H](N(C)CCOC)CC1 [Compound 25] | 2.22 |  |
|  |  | 0.126 | < 0.01 | CCN(c1cc(C#CCN2C[C@@H](C)N[C@@H](C)C2)cc(C(=O)NCc2c(C(C)C)cc(C)[nH]c2=O)c1C)C1CCOCC1 [Compound 101] |  | 0.536 |
|  |  | 0.256 | 0.01 | CCN(c1cc(C#CC2CCN(C[C@@H](C)O)CC2)cc(C(=O)NCc2c(C(C)C)cc(C)[nH]c2=O)c1C)C1CCOCC1 [Compound 102] |  | 0.614 |
|  |  | 0.232 | < 0.01 | CCN(c1cc(C#CC2CCN(C[C@H](C)O)CC2)cc(C(=O)NCc2c(C(C)C)cc(C)[nH]c2=O)c1C)C1CCOCC1 [Compound 103] |  | 0.745 |
|  |  | 0.066 | < 0.01 | CCN1CCC(C#Cc2cc(C(=O)NCc3c(C)cc(C)[nH]c3=O)c(C)c(N(CC)C3CCOCC3)c2)CC1 [Compound 104] |  | 0.549 |
|  |  | 0.044 | < 0.01 | CCN(c1cc(C#CCN2CCCCC2)cc(C(=O)NCc2c(C)cc(C)[nH]c2=O)c1C)C1CCOCC1 [Compound 106] |  | 0.188 |
|  |  | 0.028 | 0.011 | CCN(c1cc(C#CCN2CCCC2)cc(C(=O)NCc2c(C)cc(C)[nH]c2=O)c1C)C1CCOCC1 [Compound 107] |  | 0.0262 |
|  |  | 0.042 | < 0.01 | CCN(c1cc(C#CCN2CCC[C@H](O)C2)cc(C(=O)NCc2c(C)cc(C)[nH]c2=O)c1C)[C@H]1CC[C@H](N(C)C)CC1 [Compound 108] |  | 0.438 |
|  |  | 0.244 | < 0.01 | CCN(c1cc(C#CCN2CC(O)C2)cc(C(=O)NCc2c(C)cc(C)[nH]c2=O)c1C)[C@H]1CC[C@H](N(C)C)CC1 [Compound 109] |  | 1.06 |
|  |  | 2.01 | < 0.01 | CCN(c1cc(C#CCN2CC(O)C2)cc(C(=O)NCc2c(C(C)C)cc(C)[nH]c2=O)c1C)[C@H]1CC[C@H](N(C)C)CC1 [Compound 110] |  | 2.45 |
| < 0.005 | 0.14 |  |  | CCN(c1cc(C#CC2CCN(C3CC3)CC2)cc(C(=O)NCc2c(C)cc(C)[nH]c2=O)c1C)C1CCOCC1 [Compound 157] |  |  |
| < 0.005 | 0.215 |  |  | CCN(c1cc(C#CC2CCN(C3CCC3)CC2)cc(C(=O)NCc2c(C)cc(C)[nH]c2=O)c1C)C1CCOCC1 [Compound 158] |  |  |
| < 0.005 | 0.262 |  |  | CCN(c1cc(C#CC2CCN(C3COC3)CC2)cc(C(=O)NCc2c(C)cc(C)[nH]c2=O)c1C)C1CCOCC1 [Compound 159] |  |  |
| 0.014 | 0.094 |  |  | CCN(c1cc(C#CC2CCN(C(C)=O)CC2)cc(C(=O)NCc2c(C)cc(C)[nH]c2=O)c1C)[C@H]1CC[C@H](N(C)C)CC1 [Compound 160] |  |  |
| < 0.005 | 0.034 |  |  | CCN(c1cc(C#CC2CCN(CC(F)(F)F)CC2)cc(C(=O)NCc2c(C)cc(C)[nH]c2=O)c1C)[C@H]1CC[C@H](N(C)C)CC1 [Compound 161] |  |  |
| < 0.005 | 0.043 |  |  | CCN(c1cc(C#CC2CCN(C)CC2)cc(C(=O)NCc2c(OC)cc(C)[nH]c2=O)c1C)C1CCOCC1 [Compound 163] |  |  |

| Structure (SMILES) | IC50 [1] [µM] | IC50 [2, 4] [µM] | IC50 [2, 5] [µM] | IC50 [1, 7] [µM] | IC50 (WSU-DLCL2 cells; [3]) [µM] | IC50 (WSU-DLCL2 cells; [6]) [µM] |
| --- | --- | --- | --- | --- | --- | --- |
| CCN(c1cc(C#CC(C)(C)O)cc(C(=O)NCc2c(C)cc(C)[nH]c2=O)c1C)[C@H]1CC[C@H](N(C)CCOC)CC1 [Compound 8, N-((4,6-dimethyl-2-oxo-1,2-dihydropyridin-3-yl)methyl)-3-(ethyl((trans)-4-((2-methoxyethyl)(methyl)amino)cyclohexyl)amino)-5-(3-hydroxy-3-methylbut-1-yn-1-yl)-2-methylbenzamide] | 0.00882 | 0.292 |  |  | 0.11 |  |
| CCN(c1cc(F)cc(C(=O)NCc2c(C)cc(C)n(C)c2=O)c1C)C1C[C@@H](C)N[C@H](C)C1 (stereo partly drawn) [Compound 113] |  |  | > 25 | 1.22 |  | > 20 |
| CCN(c1cc(F)cc(C(=O)NCc2c(C)c(F)c(C)n(C)c2=O)c1C)C1C[C@@H](C)N[C@H](C)C1 (stereo partly drawn) [Compound 115] |  |  | > 25 | 0.497 |  | > 20 |
| CCCc1cc(C)[nH]c(=O)c1CNC(=O)c1cc(F)cc(N(CC)C2C[C@@H](C)N[C@H](C)C2)c1C (stereo partly drawn) [Compound 116] |  |  | > 25 | 0.132 |  | 13.2 |
| CCN(c1cc(F)cc(C(=O)NCc2c(C(C)C)cc(C)[nH]c2=O)c1C)C1C[C@@H](C)N[C@H](C)C1 (stereo partly drawn) [Compound 117] |  |  | 8.96 | 0.35 |  | > 20 |
| CCN(c1cc(F)cc(C(=O)NCc2c(C)cc(C)[nH]c2=O)c1C)C1C[C@@H](C)N(C)[C@H](C)C1 (stereo partly drawn) [Compound 118] |  |  | 11.7 | 0.0363 |  | 3.95 |
| CCN(c1cc(F)cc(C(=O)NCc2c(C)cc(C)[nH]c2=O)c1C)C1C[C@@H](C)N(CC)[C@H](C)C1 (stereo partly drawn) [Compound 119] |  |  | 11.3 | 0.0185 |  | 3.38 |
| CCN(c1cc(-c2ccc(OC)nc2)cc(C(=O)NCc2c(C)cc(C)[nH]c2=O)c1C)C1C[C@@H](C)N[C@H](C)C1 (stereo partly drawn) [Compound 120] |  |  | 1.43 | < 0.01 |  | 1.38 |
